Experimental findings from US20060258754A1, “Method of treating endothelial dysfunction, oxidative stress and related diseases” (priority 2004, published 2006) are described below.

SMILES strings stand for the structures. “Also recorded” adds a separate entry of the source.

For experiment [1], the system named is bovine aortic endothelial cells. The experiment can be described thus: Superoxide assay in cells: ROS in high glucose (CM-H2DCFDA). It counts as cell-based. To be noted: for reduction of ROS in cells: 30 mM glucose (ROS increased 2 fold vs 5 mM), 20, 50, 100 μM, FIG. 9; for maximal concentration for ROS reduction: 30 mM glucose, tested 20, 50, 100 μM. As to the method: Bovine aortic endothelial cells were incubated in 5 mM (control) or 30 mM (hyperglycemic) glucose for 2 hours and reactive oxygen species (ROS) determined fluorometrically using the probe CM-H2DCFDA as described by Brownlee et al. Cells were loaded with 10 μM CM-H2DCFDDA, incubated for 45 min at 37°, and then analyzed in an HTS 7000 Bio assay Fluorescent Plate Reader using HT software. ROS production is reported as nmol/mL based on a standard curve produced with H2O2.

The subject of another experiment is penile corpus cavernosus. The experiment can be described thus: Rabbit penile corpus cavernosus: relaxation to electrical field stimulation after 60 min incubation. On the set-up: species or system low dose alloxan-diabetic rabbit. To be noted: 1 μM; for restoration of vasorelaxant effect of electrical stimulation of the pudendal nerve: EFS 2-16 Hz, FIG. 8. As to the method: Male California rabbits, weighing 2-2.5 kg, were provided by the vivarium of the Biomedicine Institute-UFC. Diabetes was induced by intraperitoneal injection of alloxan (150 mg/kg) and only animals with plasma glucose concentration above 200 mg/dl were included in the study. Age-matched euglycemic rabbits were used as controls.
Kidneys and aortic rings were harvested from diabetic rabbits after 3 weeks of alloxan injection. The animals were sacrificed under sodium pentobarbital anesthesia (Hypnol®, 150-200 mg/kg). […]. Rabbit kidneys were obtained from male New Zealand rabbits (1-1.5 kg) after cannulation of the renal artery in situ. [Thereafter the organ is rapidly perfused with warm KHS at 37° C., pH 7.4 and gassed with 95% O2 in 5% CO2 in an open system with a constant flow adjusted to yield 1 mL/g/min and maintained by a peristaltic pump. The alterations in perfusion pressure are continuously recorded in a four-channel polygraph (Narco Biosystems, Houston, Tex., USA) by means of a pressure transducer (P23 Gould Stratham, Oxnard, Calif., USA). After a 30 minute equilibration period, phenylephrine (1 to 5 μM) is infused by means of an infusion pump at a constant rate (0.1 ml/min) in order to achieve a stable perfusion pressure (100-120 mm Hg). Concentration-response curves are performed to the vasodilators, i.e. acetylcholine (Ach; 10^-9 to 10^-3 M). Drugs are injected as a 50 μL bolus, previously shown not to effect perfusion pressure in an arm side just above the cannula in the renal artery.] Following penectomy, the corpus cavernosum was dissected in Krebs solution and cleared of the tunica albuginea and surrounding tissues. Strips (2 cm) were mounted vertically in isometric baths (5 mL) in Krebs-Henseleit solution (37° C., pH 7.4 gassed with 95% O2 in 5% CO2) enriched with indomethecin (10 μM) and guanethedine (10 μM) in order to avoid prostanoid or neuronal norandrenergic interaction. After a 60 minute period for stabilization, tissues were precontracted with 10 μM phenylephrine in order to increase the basal tonus. Thereafter, frequency response curves to transmural electrical field stimulations (EFS—square wave pulses: 10 s train; 20 V, 0.5 ms, 2-16 Hz) were performed until two stable reproducible curves were attained. Then, frequency response curves were repeated after 60 min incubation with saline or 1 μM pinitol, DCI or db-DCI in the alloxan-diabetic rabbits. They are perfused with KHS containing 1 μM D-chiro-inositol, pinitol, dibutyryl D-chiro-inositol, myo-inositol or saline for 60 min. Dose response curves for acetylcholine are then performed following prior phenylephrine vasoconstriction as described. At least 6 separate experiments were performed each in duplicate.

A further experiment concerns diabetic aortic rings. The experiment can be described thus: NO-induced relaxation in diabetic aortic rings contracted with phenylephrine. The following applies: 0.1 μM phenylephrine, inositol 10 μM, 1 hour, FIG. 14. As to the method: NO action was investigated in aortic rings and RbCC. […] The data in FIGS. 14 are expressed as mean±SEM of 5 experimental units. * p<0.05, ANOVA followed by Tukey-Kramer, diab (C) vs. Inositol treated. # p<0.05, ANOVA followed by Tukey-Kramer, Eugly vs. Inositol treated. In FIG. 14, Veh=vehicle; C=diabetic control; Diab=diabetic control; Eugly=euglycemic tissue. Relaxation was restored toward or to normal by incubation with inositols.

Another experiment has as its system aortic rings. The experiment can be described thus: Rat aortic thoracic rings: acetylcholine relaxation after phenylephrine contraction, 4-week oral treatment. It counts as in vivo, alloxan-diabetic male Wistar rats. To be noted: for endothelial dysfunction overall: 4-week oral administration versus saline treated alloxan diabetic rats; for effect on macrovascular endothelial dysfunction at highest acetyl choline concentrations: FIG. 2, FIG. 3; for effect on macrovascular endothelial dysfunction at intermediate acetylcholine concentration: acetylcholine 10^-7 M. As to the method: Male Wistar rats, weighing between 230-250 g, fed regular chow, with free access to water were separated in four groups (n=10/each). The first two groups, termed normoglycemic, were treated with saline (0.1 mL/100 g/12 h) by the oral route (intragastric gavage) or untreated for four weeks. The second two groups, hyperglycemic, were treated with saline (0.1 mL/100 g/12 h) or treated with D-chiro-inositol (20 mg/kg/12 h) under the same protocol. […] Diabetes was induced by a single intravenous injection of 45 mg/kg alloxan as described by Sannomiya et al., 1997 ( ). Diabetes was diagnosed 96 h after injection by blood glucose assay >200 mg/dL. All protocols were approved by the local committee and follow the Guide for the Care and Use of Laboratory Animals published by the US National Institutes of Health (NIH Publication No. 85-23, revised 1996). After completion of blood pressure measurements and vascular mesenteric bed collection, animals were sacrificed by exsanguination while under anesthesia. The thoracic aorta was excised and rapidly cleansed of connective tissue in Petri dishes containing warmed and gassed (95% O2 in 5% CO2) Krebs-Henseleit solution (KHS). The aorta segment was cut in small rings (≈5 mm) and mounted horizontally in 5 mL chambers for isometric recording of tension. The resting tension was adjusted to 1 g and the tissue allowed to equilibrate for 1 hour with a 15 min washout period. Tissues were kept in KHS at 37° C., gassed with the O2, CO2 mixture and isometric recordings made with a force displacement transducer connected to a four-channel polygraph (Narco Biosystems, Houston, Tex., USA). After the equilibration period, tissues were contracted with a submaximal concentration of phenylephrine (≈60% maximal response) until two similar responses were obtained in order to ensure reproducibility of the contraction curves. […] The acetylcholine dose response curve was repeated after a 60 min washout interval. All experiments were performed in the presence of indomethecin (10 μM) and guanethidine (10 μM) to prevent the production of vasoactive prostanoids. At least 6 separate experiments will be performed each in duplicate.

The subject of experiment [2] is ROS generated by xanthine/xanthine oxidase. Briefly: Superoxide assay in vitro: xanthine/xanthine oxidase, NBT reduction. It counts as biochemical. To be noted: low micromolar concentrations, FIG. 10. As to the method: Superoxide radicals were generated by the reaction of xanthine (1 mM) and xanthine oxidase ([…]) in air-saturated potassium phosphate buffer (pH 7.8 at 25° C.). Superoxide anions were detected by nitroblue tetrazolium (NBT—50 μM) which undergoes reduction by O2-. to its formazan. The rate of reduction was monitored spectrophotometrically at 560 nm with an Ultrospec 1000 (Pharmacia Biotech, Cambridge, England). SOD-1, by scavanging O2-. Diminishes the rate of reduction of NBT. The volume was fixed at 2 mL. Each experiment was run in duplicate.

Where [3] appears, read: chronic oral administration, FIG. 3.

As to `OC1C(O)C(O)C(O)C(O)C1O` [DCI, D-chiro-inositol], the figures for the “reduction of ROS in cells” value in experiment [1] and in experiment [1] (listed as D-chiro-inositol) were “reduced back to basal concentrations in a dose dependant manner” and “reduced to basal concentrations in a dose dependent manner”, respectively. In experiment [1], the “maximal concentration for ROS reduction” value stood at 50 µM. Further, the “restoration of vasorelaxant effect of electrical stimulation of the pudendal nerve” value with penile corpus cavernosus is “restoration of vasorelaxant effect”. In addition, the “relaxation to added NO” value with diabetic aortic rings is given as “restored relaxation to normal”. Further, the figures for the endothelial dysfunction overall entry in the experiment on aortic rings and in the experiment with aortic rings (listed as D-chiro-inositol) were “effective in improving endothelial dysfunction” and “prevented the endothelial dysfunction”, respectively. In addition, in the experiment with aortic rings (D-chiro-inositol 20 mg/kg/12 h by gavage four weeks, lower acetylcholine concentrations, saline diabetic 57.4±4.5%), the “relaxant response induced by acetylcholine, reversal of the pre-contractile state” value is 100%. Besides, in the experiment with aortic rings (chronic oral administration), the “effect on macrovascular endothelial dysfunction at highest acetyl choline concentrations” value is listed as “partially restored to normal; also recorded: the most effective”. Besides, the “effect on macrovascular endothelial dysfunction at intermediate acetylcholine concentration” value in the experiment on aortic rings (setting [3]) is “followed by DCI, pinitol and myoinositol in descending order of effect”; in the experiment on aortic rings (chronic oral administration, FIG. 3, listed as D-chiro-inositol) it was “active at intermediate acetyl choline concentrations”. In addition, the “reduction of ROS generated by xanthine/xanthine oxidase” value in experiment [2] is on record as “reduced ROS in a low micromolar concentration dependant manner”; in experiment [2] (listed as D-chiro-inositol), “equally effective”.

On to `CCCC(=O)O[C@@H]1[C@@H](O)[C@@H](O)[C@H](O)[C@H](O)[C@H]1OC(=O)CCC` [dbDCI, 3,4-dibutyryl-D-chiroinositol], for which the entries for the “reduction of ROS in cells” value in experiment [1] and in experiment [1] (listed as Dibutyryl-DCI) were “reduced back to basal concentrations in a dose dependant manner” and “greater effect of reducing ROS than DCI at lower concentrations”, respectively. In experiment [1], the “maximal concentration for ROS reduction” value worked out at 20 µM. Besides, in the experiment on penile corpus cavernosus, the “restoration of vasorelaxant effect of electrical stimulation of the pudendal nerve” value was “restoration of vasorelaxant effect; also recorded: greatest effect at all levels of electrical stimulation”. The “restoration of vasorelaxant effect at EFS of 4 Hz” value in the experiment with penile corpus cavernosus (EFS 4 Hz) is “Almost complete restoration”. Also, the “relaxation to added NO” value in the experiment with diabetic aortic rings is given as “restored relaxation to normal”. Further, the “effect on macrovascular endothelial dysfunction at highest acetyl choline concentrations” value in the experiment on aortic rings (chronic oral administration) is “the most effective”. Also, the “effect on macrovascular endothelial dysfunction at lowest acetyl choline concentrations” value in the experiment with aortic rings (setting [3]) is “most effective at the lowest acetyl choline concentrations”. Also, the “effect on macrovascular endothelial dysfunction at intermediate acetylcholine concentration” value in the experiment with aortic rings (setting [3]) is recorded as “greatest effect”. Moreover, the “reduction of ROS generated by xanthine/xanthine oxidase” value in experiment [2] was “reduced ROS in a low micromolar concentration dependant manner; also recorded: statistically more effective than the other 3 inositols”; in experiment [2] (listed as dibutyryl D-chiro-inositol) it was “statistically more effective than the other 3 inositols”.
